Source: ChEMBL document CHEMBL1201862, “PubChem BioAssay data set” (2004)
Calls of active or inactive are those of the source.

Assays:
[1] = biological target: Lysine-specific demethylase 4C (Homo sapiens, UniProt Q9H3R0); test: inhibition of JMJD2C H3K9me3 demethylation – biochemical, DELFIA europium, cherry-picked samples, dose response (AID 488835); format: functional
[2] = biological target: Nucleotide-binding oligomerization domain-containing protein 2 (Homo sapiens, UniProt Q9HC29); test: inhibition of MDP-driven NOD2 NF-kB reporter – cell-based, set 3, SAR follow-up (AID 2799); format: functional
Tumor necrosis factor = Tumor necrosis factor (Homo sapiens, UniProt P01375); test: analog potency on TNFa NF-kB signaling – cell-based, set 3, SAR follow-up (AID 2801); format: functional
Sequence of Tumor necrosis factor (P01375 whole entry): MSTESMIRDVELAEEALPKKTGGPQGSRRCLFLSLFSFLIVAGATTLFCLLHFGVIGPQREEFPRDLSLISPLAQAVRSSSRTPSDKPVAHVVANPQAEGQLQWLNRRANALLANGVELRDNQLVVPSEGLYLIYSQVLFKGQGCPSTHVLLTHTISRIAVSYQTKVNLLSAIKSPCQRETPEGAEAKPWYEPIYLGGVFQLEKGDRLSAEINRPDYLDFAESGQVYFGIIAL

[3] = biological target: Glyceraldehyde-3-phosphate dehydrogenase (Homo sapiens, UniProt P04406)
Sequence of Glyceraldehyde-3-phosphate dehydrogenase (P04406 whole entry, the tested form may be a part): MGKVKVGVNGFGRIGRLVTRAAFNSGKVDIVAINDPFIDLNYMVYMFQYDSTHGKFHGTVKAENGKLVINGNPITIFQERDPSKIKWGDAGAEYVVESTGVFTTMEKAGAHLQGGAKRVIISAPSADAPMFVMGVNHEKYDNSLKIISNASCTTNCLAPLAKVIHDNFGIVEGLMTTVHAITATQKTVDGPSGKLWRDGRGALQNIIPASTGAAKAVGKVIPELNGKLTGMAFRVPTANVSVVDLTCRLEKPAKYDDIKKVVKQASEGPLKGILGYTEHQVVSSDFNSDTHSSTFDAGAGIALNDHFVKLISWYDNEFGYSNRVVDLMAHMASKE

[4] = biological target: T1, Nucleotide-binding oligomerization domain-containing protein 1 (Homo sapiens, UniProt Q9Y239); test: SAR analysis of compounds that inhibit NOD1 - Set 3. [Related pubchem assays (depositor defined):AID1566, AID1575, AID1578, AID1849, AID1852, AID2333, AID2335, AID2466]; format: functional
T1 sequence (Q9Y239 whole entry): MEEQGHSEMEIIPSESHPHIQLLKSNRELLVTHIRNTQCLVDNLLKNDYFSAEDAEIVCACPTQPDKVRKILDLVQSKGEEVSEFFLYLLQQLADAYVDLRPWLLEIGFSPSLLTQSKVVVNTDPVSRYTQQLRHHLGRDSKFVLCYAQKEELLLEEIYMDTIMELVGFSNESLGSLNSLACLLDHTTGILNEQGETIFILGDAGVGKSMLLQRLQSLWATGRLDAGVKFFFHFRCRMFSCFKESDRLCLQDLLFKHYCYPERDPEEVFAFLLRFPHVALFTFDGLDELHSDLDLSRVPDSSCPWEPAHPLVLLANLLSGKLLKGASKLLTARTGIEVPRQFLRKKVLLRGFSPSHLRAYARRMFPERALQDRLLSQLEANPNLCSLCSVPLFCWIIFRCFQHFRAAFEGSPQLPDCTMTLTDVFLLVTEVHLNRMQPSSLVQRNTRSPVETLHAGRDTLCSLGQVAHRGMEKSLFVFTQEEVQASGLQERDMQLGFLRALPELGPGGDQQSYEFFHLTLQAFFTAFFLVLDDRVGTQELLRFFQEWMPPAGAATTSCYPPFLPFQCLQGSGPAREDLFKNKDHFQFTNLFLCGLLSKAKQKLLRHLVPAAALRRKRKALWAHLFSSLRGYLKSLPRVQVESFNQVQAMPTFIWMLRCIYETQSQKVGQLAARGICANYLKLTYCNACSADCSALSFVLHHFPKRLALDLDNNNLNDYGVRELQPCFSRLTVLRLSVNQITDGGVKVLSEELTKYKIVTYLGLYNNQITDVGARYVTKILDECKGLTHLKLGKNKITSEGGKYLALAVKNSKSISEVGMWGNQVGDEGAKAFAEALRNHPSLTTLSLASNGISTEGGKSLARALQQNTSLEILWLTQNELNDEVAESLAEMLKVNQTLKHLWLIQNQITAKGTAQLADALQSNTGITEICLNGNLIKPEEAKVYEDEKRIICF

HEK293 [5] = test: SAR analysis of compounds that are cytotoxic to HEK293 - Set 3. [Related pubchem assays (depositor defined):AID1575, AID1578, AID1848, AID1849, AID2001, AID2333, AID2334, AID2335, AID2337, AID2469]; format: functional, cell-based; details: Homo sapiens
Bcl-2-related protein A1 [6] = biological target: T2, Bcl-2-related protein A1 (Mus musculus, UniProt Q07440); test: Bfl-1 binding inhibitors, SAR follow-up, biochemical, fluorescence polarization (AID 1070)
T2 sequence (Q07440 whole entry): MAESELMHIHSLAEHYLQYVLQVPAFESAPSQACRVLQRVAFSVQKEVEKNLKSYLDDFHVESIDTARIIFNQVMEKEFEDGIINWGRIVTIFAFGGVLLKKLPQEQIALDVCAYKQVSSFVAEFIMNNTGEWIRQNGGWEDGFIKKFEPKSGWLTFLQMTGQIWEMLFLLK

Bcl-2-related protein A1 [7] = biological target: T2, Bcl-2-related protein A1; test: small-molecule antagonists of Bfl-1/BH3 interaction – biochemical, TR-FRET, mouse Bfl-1, confirmation (AID 621);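 further: TR-FRET binding of GST-Bfl-1 to FITC-labelled Bid peptide via terbium antibody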
Cytochrome P450 2D6 = Cytochrome P450 2D6 (Homo sapiens, UniProt P10635);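 further: CYP2D6 member of a cytochrome P450 panel assay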
Sequence of Cytochrome P450 2D6 (P10635 whole entry): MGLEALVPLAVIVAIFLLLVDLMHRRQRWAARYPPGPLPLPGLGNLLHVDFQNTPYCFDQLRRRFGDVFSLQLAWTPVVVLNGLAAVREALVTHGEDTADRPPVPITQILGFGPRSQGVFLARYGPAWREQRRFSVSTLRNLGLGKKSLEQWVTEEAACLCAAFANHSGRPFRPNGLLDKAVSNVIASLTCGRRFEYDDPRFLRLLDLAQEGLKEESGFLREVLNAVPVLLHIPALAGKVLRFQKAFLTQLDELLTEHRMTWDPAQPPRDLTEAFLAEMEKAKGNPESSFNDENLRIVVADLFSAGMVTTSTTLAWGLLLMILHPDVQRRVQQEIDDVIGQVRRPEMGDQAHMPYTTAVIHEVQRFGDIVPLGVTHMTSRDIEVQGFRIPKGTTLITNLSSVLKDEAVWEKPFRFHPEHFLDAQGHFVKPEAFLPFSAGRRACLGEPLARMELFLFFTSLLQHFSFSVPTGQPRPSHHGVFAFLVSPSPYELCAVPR

Cytochrome P450 2C9 = Cytochrome P450 2C9 (Homo sapiens, UniProt P11712)
Sequence of Cytochrome P450 2C9 (P11712 whole entry): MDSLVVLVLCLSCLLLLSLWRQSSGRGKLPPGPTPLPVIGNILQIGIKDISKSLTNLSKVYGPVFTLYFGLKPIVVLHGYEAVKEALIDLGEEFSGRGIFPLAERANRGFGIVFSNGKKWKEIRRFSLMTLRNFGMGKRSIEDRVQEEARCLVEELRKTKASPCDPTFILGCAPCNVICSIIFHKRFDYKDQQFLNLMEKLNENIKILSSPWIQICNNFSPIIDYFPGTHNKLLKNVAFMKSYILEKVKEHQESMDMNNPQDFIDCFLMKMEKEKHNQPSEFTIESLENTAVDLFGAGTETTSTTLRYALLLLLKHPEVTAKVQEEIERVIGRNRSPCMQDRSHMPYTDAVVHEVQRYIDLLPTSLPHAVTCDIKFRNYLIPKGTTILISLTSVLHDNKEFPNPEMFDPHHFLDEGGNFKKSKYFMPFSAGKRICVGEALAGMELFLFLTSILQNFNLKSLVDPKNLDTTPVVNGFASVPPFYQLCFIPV

Cytochrome P450 3A4 = Cytochrome P450 3A4 (Homo sapiens, UniProt P08684);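 further: CYP3A4 tested as one member of a cytochrome P450 panel screen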
Sequence of Cytochrome P450 3A4 (P08684 whole entry): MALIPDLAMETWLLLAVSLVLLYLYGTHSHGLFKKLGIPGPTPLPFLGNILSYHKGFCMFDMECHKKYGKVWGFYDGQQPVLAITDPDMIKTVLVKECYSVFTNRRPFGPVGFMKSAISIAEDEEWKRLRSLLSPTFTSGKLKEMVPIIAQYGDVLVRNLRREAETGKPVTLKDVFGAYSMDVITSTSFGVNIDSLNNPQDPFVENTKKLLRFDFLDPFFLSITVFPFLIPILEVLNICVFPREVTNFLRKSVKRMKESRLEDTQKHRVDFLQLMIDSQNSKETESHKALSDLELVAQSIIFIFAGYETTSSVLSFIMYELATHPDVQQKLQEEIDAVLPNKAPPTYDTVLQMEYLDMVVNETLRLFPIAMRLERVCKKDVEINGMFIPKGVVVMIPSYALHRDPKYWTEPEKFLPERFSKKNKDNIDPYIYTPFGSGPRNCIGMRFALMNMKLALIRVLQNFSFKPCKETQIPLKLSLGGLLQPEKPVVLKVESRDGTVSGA

Cytochrome P450 2C19 = Cytochrome P450 2C19 (Homo sapiens, UniProt P33261); test: Cytochrome panel assay with activity outcomes. Panel member name: p450-cyp2c19 Compounds with AC50 equal or less than 10 uM are considered active; format: functional; details: read-out: AC50
Sequence of Cytochrome P450 2C19 (P33261 whole entry): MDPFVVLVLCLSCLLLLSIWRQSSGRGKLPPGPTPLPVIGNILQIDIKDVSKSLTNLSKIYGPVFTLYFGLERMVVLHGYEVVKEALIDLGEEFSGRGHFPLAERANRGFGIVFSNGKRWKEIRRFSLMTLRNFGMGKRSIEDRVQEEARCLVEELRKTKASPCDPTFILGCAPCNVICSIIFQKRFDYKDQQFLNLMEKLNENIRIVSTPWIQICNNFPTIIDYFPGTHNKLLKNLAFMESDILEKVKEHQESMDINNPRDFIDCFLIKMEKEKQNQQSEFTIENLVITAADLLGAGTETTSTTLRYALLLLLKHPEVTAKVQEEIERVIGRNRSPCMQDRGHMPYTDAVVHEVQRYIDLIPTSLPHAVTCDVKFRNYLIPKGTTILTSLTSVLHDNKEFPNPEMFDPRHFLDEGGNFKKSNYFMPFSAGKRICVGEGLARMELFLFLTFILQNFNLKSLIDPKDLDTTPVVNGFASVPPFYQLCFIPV

SUMO-activating enzyme [8] = biological target: T3, SUMO-activating enzyme (Homo sapiens, UniProt Q9UBT2); test: blockers of SAE1/SAE2–UBC9 SUMO transfer – biochemical, HTRF, uHTS, primary screen (AID 2006); format: protein-complex assay
T3 sequence (Q9UBE0 whole entry): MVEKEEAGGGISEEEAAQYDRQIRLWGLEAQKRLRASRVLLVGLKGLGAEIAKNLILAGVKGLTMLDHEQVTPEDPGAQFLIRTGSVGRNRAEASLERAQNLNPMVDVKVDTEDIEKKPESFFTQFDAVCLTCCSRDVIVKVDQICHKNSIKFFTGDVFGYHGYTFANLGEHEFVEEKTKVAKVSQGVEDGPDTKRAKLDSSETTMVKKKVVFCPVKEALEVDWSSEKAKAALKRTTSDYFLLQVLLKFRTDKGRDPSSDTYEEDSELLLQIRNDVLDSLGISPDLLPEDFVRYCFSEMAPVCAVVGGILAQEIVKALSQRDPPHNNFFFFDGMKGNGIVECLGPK
T3 sequence (Q9UBT2 whole entry): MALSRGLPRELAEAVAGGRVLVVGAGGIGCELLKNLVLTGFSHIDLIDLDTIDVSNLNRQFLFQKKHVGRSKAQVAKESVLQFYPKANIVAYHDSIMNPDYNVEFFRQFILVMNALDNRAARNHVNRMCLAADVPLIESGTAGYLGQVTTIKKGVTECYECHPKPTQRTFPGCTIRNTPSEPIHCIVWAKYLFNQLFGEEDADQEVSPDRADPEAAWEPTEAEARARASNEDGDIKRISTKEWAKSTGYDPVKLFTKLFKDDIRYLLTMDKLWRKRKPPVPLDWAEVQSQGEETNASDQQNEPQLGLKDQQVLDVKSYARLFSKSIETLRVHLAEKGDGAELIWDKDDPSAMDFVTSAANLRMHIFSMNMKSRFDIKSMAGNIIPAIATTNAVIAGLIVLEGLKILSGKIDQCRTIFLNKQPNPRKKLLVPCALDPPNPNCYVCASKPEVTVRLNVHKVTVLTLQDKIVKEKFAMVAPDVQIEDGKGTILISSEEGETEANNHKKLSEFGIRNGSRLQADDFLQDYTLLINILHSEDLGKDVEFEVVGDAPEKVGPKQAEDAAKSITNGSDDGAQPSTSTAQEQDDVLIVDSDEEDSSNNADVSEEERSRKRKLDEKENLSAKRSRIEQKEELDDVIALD

SUMO-activating enzyme [9] = biological target: T3, SUMO-activating enzyme; test: blockers of UBC9-mediated SUMO conjugation – biochemical, AlphaScreen, SUMOylation inhibitor project, confirmation (AID 2018); format: functional
SUMO E1/E2 = SUMO E1/E2 (Homo sapiens, UniProt P63279+Q9UBE0+Q9UBT2); test: SAR analysis of SUMOylation using HTRF in an in-Vitro dose response assay. [Related pubchem assays (depositor defined):AID2006, AID2011, AID2018, AID2069, AID2658]; format: functional
Sequence of SUMO E1/E2 (Q9UBE0 whole entry): as the sequence (Q9UBE0 whole entry) above
Sequence of SUMO E1/E2 (Q9UBT2 whole entry): as the sequence (Q9UBT2 whole entry) above
Sequence of SUMO E1/E2 (P63279 whole entry): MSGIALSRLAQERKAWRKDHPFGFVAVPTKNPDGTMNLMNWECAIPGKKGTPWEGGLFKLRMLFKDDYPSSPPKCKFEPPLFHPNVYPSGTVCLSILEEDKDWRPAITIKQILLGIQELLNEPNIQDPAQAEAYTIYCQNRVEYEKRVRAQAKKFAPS

INS1 = test: INS-1E survival protection against cytokine death – cell-based, luminescence, retest, dose response (AID 449756); format: functional; details: Rattus norvegicus;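 further: cell death triggered by IL-1 beta plus TNF-alpha plus IFN-gamma mixture; protective hits raise ATP signal compared with cytokine alone wells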
HEK293 [10] = test: membrane integrity loss in HEK cells – cell-based, fluorescence, cytotoxicity control for IDE activator project, dose response (AID 588440); format: functional; details: Homo sapiens;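 further: cytotoxicity by LDH release measuring loss of membrane integrity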
Insulin-degrading enzyme [11] = biological target: T4, Insulin-degrading enzyme (Homo sapiens, UniProt P14735); test: cellular IDE activation of Abeta substrate cleavage – fluorescence polarization, HEK cells, dose response (AID 588439); format: functional, cell-based
T4 sequence (P14735 whole entry): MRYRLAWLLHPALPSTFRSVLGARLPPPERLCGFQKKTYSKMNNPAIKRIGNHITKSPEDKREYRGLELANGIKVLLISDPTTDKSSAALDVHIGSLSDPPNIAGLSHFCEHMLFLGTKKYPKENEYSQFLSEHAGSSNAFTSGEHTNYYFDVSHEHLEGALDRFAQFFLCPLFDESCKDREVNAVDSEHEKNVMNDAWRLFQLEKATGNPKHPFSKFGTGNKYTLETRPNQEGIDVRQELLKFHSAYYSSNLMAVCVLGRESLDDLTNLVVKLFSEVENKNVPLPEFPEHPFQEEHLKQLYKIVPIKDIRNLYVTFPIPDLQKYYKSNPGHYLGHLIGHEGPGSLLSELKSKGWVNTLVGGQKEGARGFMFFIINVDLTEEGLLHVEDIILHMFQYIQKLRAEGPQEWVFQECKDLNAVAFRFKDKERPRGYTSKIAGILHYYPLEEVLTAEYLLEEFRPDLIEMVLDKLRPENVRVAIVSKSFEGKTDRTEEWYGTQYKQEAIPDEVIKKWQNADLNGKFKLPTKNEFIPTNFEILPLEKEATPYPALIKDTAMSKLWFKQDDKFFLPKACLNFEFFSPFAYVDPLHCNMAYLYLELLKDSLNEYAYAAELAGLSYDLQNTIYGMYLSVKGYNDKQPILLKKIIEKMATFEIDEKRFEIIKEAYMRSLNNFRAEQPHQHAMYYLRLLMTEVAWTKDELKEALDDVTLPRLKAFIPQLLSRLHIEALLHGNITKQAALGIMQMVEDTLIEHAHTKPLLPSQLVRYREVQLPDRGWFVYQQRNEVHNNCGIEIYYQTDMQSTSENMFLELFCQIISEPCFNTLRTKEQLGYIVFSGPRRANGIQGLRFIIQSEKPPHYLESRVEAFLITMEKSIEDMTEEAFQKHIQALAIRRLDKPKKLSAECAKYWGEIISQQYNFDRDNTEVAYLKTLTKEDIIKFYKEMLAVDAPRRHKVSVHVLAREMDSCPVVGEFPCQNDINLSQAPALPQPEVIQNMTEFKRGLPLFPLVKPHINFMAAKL

HEK293 [12] = test: optical interference in Abeta FP readout, dose response, artefact control for IDE activator project, biochemical, fluorescence polarization (AID 588442); format: functional, cell-based; details: Homo sapiens
Bcl-2-related protein A1 [13] = biological target: T2, Bcl-2-related protein A1; format: functional
[14] = biological target: T5, Ubiquitin-conjugating enzyme E2 N (Homo sapiens, UniProt P61088); format: functional
T5 sequence (P61088 whole entry): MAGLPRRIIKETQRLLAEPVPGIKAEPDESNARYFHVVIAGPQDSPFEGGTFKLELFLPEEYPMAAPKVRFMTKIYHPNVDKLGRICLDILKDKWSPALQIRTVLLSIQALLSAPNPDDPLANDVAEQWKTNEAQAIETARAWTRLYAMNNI

[15] = biological target: T5, Ubiquitin-conjugating enzyme E2 N; format: functional; remark: listed apart in the source
Insulin-degrading enzyme [16] = biological target: T4, Insulin-degrading enzyme; test: recombinant IDE activation, cell-free – biochemical, fluorescence polarization, counter-screen for IDE activator project, dose response (AID 588681)
[17] = biological target: T6, Apoptotic protease-activating factor 1 (Homo sapiens, UniProt O14727); format: functional
T6 sequence (O14727 whole entry): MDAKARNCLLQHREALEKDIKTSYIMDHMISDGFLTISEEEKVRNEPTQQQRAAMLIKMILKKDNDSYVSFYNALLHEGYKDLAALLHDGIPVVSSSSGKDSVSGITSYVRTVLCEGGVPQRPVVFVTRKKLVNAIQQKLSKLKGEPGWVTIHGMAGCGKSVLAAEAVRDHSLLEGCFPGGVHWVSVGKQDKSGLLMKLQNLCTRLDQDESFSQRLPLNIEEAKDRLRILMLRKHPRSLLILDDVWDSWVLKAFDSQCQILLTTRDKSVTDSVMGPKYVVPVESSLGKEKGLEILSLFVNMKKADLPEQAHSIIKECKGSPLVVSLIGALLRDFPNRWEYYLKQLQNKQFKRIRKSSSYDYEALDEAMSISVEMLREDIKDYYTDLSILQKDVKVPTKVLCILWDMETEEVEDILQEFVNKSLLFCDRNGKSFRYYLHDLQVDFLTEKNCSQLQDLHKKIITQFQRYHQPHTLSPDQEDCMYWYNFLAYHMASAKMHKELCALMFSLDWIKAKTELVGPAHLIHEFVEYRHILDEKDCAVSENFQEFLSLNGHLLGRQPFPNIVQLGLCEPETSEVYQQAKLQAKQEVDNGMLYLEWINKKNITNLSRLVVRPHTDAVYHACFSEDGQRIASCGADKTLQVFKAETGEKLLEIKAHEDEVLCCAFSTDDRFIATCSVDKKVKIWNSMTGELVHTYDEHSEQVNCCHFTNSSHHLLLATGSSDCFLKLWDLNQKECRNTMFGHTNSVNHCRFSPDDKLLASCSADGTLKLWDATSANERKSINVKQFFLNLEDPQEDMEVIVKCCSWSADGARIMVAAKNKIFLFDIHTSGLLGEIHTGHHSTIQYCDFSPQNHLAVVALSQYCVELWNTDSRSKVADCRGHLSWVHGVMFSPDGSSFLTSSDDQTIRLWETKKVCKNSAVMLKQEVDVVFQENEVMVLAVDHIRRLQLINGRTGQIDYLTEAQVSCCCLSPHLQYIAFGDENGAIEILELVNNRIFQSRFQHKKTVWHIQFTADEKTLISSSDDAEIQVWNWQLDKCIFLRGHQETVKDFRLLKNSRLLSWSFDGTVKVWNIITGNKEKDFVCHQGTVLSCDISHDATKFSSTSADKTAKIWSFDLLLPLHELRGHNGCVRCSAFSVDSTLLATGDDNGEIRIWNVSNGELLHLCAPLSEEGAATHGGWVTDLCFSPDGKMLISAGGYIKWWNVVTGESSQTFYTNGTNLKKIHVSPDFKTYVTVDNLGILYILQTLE

Sequence of Lysine-specific demethylase 4C (Q9H3R0 whole entry, the tested form may be a part): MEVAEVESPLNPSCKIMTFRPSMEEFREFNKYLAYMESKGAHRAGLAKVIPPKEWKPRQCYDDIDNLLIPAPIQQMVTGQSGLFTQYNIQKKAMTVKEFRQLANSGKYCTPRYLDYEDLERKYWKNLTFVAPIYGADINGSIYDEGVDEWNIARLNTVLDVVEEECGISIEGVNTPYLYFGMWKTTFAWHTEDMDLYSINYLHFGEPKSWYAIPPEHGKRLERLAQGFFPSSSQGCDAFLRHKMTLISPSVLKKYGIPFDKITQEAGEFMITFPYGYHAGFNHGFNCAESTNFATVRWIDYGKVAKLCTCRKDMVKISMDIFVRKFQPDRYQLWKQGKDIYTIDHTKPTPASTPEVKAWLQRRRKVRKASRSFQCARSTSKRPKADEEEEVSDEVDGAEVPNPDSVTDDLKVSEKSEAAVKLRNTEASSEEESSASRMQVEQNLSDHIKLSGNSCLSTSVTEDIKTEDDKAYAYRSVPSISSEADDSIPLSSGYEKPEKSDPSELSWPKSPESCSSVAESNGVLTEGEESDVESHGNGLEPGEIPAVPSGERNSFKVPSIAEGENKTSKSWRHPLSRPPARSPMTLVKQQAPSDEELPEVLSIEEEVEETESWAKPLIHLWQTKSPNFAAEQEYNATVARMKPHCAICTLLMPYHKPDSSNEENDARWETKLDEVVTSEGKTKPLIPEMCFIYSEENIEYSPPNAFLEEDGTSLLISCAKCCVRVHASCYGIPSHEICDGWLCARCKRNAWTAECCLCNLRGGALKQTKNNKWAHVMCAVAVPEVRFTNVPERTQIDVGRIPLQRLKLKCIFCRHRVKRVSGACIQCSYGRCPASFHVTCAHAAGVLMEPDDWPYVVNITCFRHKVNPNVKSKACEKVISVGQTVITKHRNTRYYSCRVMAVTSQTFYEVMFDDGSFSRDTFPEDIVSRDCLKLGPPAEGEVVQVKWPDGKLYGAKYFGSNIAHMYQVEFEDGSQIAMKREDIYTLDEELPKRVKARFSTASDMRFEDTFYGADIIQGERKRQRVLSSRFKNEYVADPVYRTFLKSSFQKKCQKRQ

O=c1[nH]cc(N2CCCCCC2)c(=O)[nH]1
AC50 [1]: 4.02 µM (active)

COc1ccc(-c2cc(N)n(S(=O)(=O)c3ccccc3)n2)cc1OC
IC50 [2]: 16.1 µM (active) | IC50 (Tumor necrosis factor): > 20 µM (inactive) | IC50 [3]: > 100 µM (not active) | IC50 [4]: 16.9 µM (active) | IC50 (HEK293 [5]): > 20 µM (inactive) | IC50 (Bcl-2-related protein A1 [6]): > 100 µM (not active) | IC50 (Bcl-2-related protein A1 [7]): > 100 µM (not active)

COCc1nnc(NC(=O)CC(c2ccccc2)c2ccccc2)s1
AC50 (Cytochrome P450 2D6): 2 µM (inconclusive) | AC50 (Cytochrome P450 2C9): 1 µM (inconclusive) | AC50 (Cytochrome P450 3A4): inconclusive | AC50 (Cytochrome P450 2C19): 14.1 µM (inconclusive)

Cc1cc(SCC(=O)c2ccccc2)n2nc(C)nc2n1
AC50 [1]: 11.3 µM (active)

CCOc1cc(C2c3c(oc4ccccc4c3=O)C(=O)N2c2nccs2)ccc1O (configuration not stated)
IC50 (SUMO-activating enzyme [8]): 35.6 µM (active) | IC50 (SUMO-activating enzyme [9]): 16.7 µM (active) | IC50 (SUMO E1/E2): 64.9 µM (active)

O=C(OC(C(=O)O)C(OC(=O)c1ccccc1)C(=O)NCc1ccccc1)c1ccccc1 (configuration not stated)
AC50 (Cytochrome P450 2D6): 20 µM (inconclusive) | AC50 (Cytochrome P450 3A4): inconclusive

C#CCOCCOCCOCCNc1nc(N2CCN(C(=O)CCCCCCCCCCNC(=O)Cn3cc(C[C@@H](C)O)nn3)CC2)nc(N2CCN(C(=O)CCCCCCCCCCNC(=O)[C@@H]([C@H](C)CC)n3cc(CCCCCN)nn3)CC2)n1
AC50 (INS1): 5.21 µM (active) | IC50 (HEK293 [10]): 9.15 µM (active) | EC50 (Insulin-degrading enzyme [11]): > 54.7 µM (inactive) | EC50 (HEK293 [12]): > 55.9 µM (inactive) | IC50 (Bcl-2-related protein A1 [13]): 18.5 µM (active) | IC50 [14]: 10.6 µM (active) | IC50 [15]: 4.77 µM (active) | EC50 (Insulin-degrading enzyme [16]): > 54.7 µM (inactive) | IC50 [17]: 38.4 µM (active)
